Test [1] deals with mature adipocytes (3T3-L1 cells). Briefly: Enhancing action on glucose uptake (2-deoxyglucose) into mature adipocytes. Particulars: Mus musculus, 3T3-L1, X=(S−N)/(P−N) of 2-deoxyglucose uptake, P=insulin 1 μg/mL, read-out: Enhancing Action on Glucose Uptake. Type of test: cell-based. On the procedure: The induction of differentation into nature adipocytes was carried out by partially modifying the above-mentioned method of Rubin C. S. et al. 3T3-L1 cells (ATCC CCL-92.1) were suspended in a 10% fetal bovine serum (manufactured by Bio Whittaker)-containing Dulbecco's modified Eagle's medium (manufactured by Sigma, D6046) containing 200 μM ascorbic acid so as to have a density of 4×10^3 cells/mL, and the suspension was put in each well of a collagen type I-coated 12-well plate (Iwaki Glass Co., Ltd., code 4815-010) in an amount of 2 mL per well. The cells were cultured at 37° C. for 7 days in the presence of 5% carbon dioxide gas. On the seventh day, the medium was exchanged with 2 mL of a 10% fetal bovine serum (manufactured by Bio Whittaker)-containing Dulbecco's modified Eagle's medium containing 200 μM ascorbic acid, 0.25 μM dexamethasone, 10 μg/mL insulin (manufactured by TAKARA BIO INC.) and 0.5 mM 3-isobutyl-1-methylxanthine (manufactured by nacalai tesque, 19624-86). After 45 hours, the medium was exchanged with 2 mL of a 10% fetal bovine serum-containing Dulbecco's modified Eagle's medium containing 200 μM ascorbic acid and 5 μg/mL insulin. The medium was exchanged on after 2 days and 5 days, and the cells were cultured for 7 days, to give mature adipocytes.
As the evaluation of the enhancing action on glucose uptake, and also as the evaluation of the insulin-mimetic action, the amount of 2-deoxyglucose uptake into mature adipocytes during the stimulation of the test compound in the adipocytes was determined. As a test compound, a compound prepared in the Examples mentioned above or a commercially available compound was used.
After the termination of the culture, the medium was removed, and the cells were washed twice with a 0.1% (w/v) bovine serum albumin (manufactured by Sigma, A8022)-containing Dulbecco's modified Eagle's medium. Thereafter, 1 mL of the same medium containing a test compound in a concentration shown in each of Tables 20 to 23 was put to each well. The cells were cultured overnight at 37° C. in the presence of 5% carbon dioxide gas. Here, a group without containing the test compound was set as a negative control. After the overnight culture, the cells were washed twice with a HEPES buffer (140 mM NaCl, 5 mM KCl, 2.5 mM MgSO4, 1 mM CaCl2, 20 mM HEPES-Na (pH 7.4)). The amount 0.9 mL of the buffer containing a test compound in the same concentration was added to each well. The cells were cultured at 37° C. for 75 minutes. During the culture, as a positive control, there was set a group with addition of insulin to the well without addition of a test compound at a point 45 minutes passed so as to have a final concentration of 1 μg/mL. Thereafter, 100 μL of a HEPES buffer containing 0.5 μCi/mL 2-deoxy-[1,2-^3H(N)]-glucose (manufactured by PerkinElmer Life Sciences Inc., NET549A) and 1 mM 2-deoxyglucose (manufactured by nacalai tesque, 10722-11) was added thereto. The cells were cultured at 37° C. for additional 10 minutes. After the termination of the culture, the supernatant was removed, and the cells were washed three times with a phosphate buffer cooled to 4° C. Thereafter, 0.5 mL of a 1% Nonidet P-40-containing phosphate buffer was added to lyse the cells, whereby 2-deoxy-[1,2-^3H(N)]-glucose subjected to uptake into the cells was eluted. The radioactivity was determined with a liquid scintillation counter LS6500 (manufactured by Beckmann) using 25 μL of the supernatant with Ultima Gold (manufactured by PerkinElmer Life Sciences Inc., 6013329) as a scintillation cocktail. The enhancing action on glucose uptake was calculated by the following calculation formula, and shown by four ranks of +++, ++, + and +/−. • S: Amount of 2-deoxyglucose uptake in the presence of a test compound; • N: Amount of 2-deoxyglucose uptake in the negative control; and • P: Amount of 2-deoxyglucose uptake in the positive control; X=(S−N)/(P−N) (Judgment of Enhancing Action for 2-Deoxyglucose Uptake)

A further test has as its system 3T3-L1 cells. Briefly: Induction of adipocyte differentiation (amount of triglyceride biosynthesis). Type of test: cell-based. The following applies: Mus musculus. The method, then:
Induction of adipocyte differentiation was carried out by partially modifying the above-mentioned method of Rubin C. S. et al. In addition, as a test compound, a compound prepared in Examples mentioned above or a commercially available compound was used. 3T3-L1 cells (ATCC CCL-92.1) were suspended in a 10% fetal bovine serum (manufactured by Bio Whittaker)-containing Dulbecco's modified Eagle's medium (manufactured by Sigma, D6046) containing 200 μM ascorbic acid so as to have a density of 4×10^3 cells/mL, and the suspension was put in each well of a 12-well microtiter plate in an amount of 2 ml per well. The cells were cultured at 37° C. for 7 days in the presence of 5% carbon dioxide gas. On the seventh day, the medium was exchanged with a 10% fetal bovine serum (manufactured by Bio Whittaker)-containing Dulbecco's modified Eagle's medium containing 200 μM ascorbic acid and 0.25 μM dexamethasone, and a test compound dissolved in dimethyl sulfoxide in a concentration shown in each of Tables 16 to 19 was added to each well. Here, there were set a group with addition of 4 μL of an aqueous solution containing 5 mg/mL insulin (manufactured by TAKARA BIO INC.) as a positive control, and a group with addition of dimethyl sulfoxide as a negative control. After 45 hours, the medium was exchanged with a 10% fetal bovine serum-containing Dulbecco's modified Eagle's medium containing 200 μM ascorbic acid. A test compound, 2 μL of an aqueous solution containing 5 mg/mL insulin as a positive control, or dimethyl sulfoxide as a negative control was put to each well in the same concentration. The cells were cultured for additional 7 days. In addition, the medium was exchanged on after 2 days and after 5 days, and at that time, a test compound, 2 μL of an aqueous solution containing 5 mg/mL insulin as a positive control, or dimethyl sulfoxide as a negative control was put to each well in the same concentration.
The amount of triglyceride in the adipocytes was determined as an index of induction of differentiation into mature adipocytes, and also, as the evaluation of insulin-mimetic action.
After the termination of the culture, the medium was removed, and the cells were washed twice with a phosphate buffered saline. One milliliter of a solvent of hexane:isopropanol=3:2 was added to the cells. The mixture was allowed to stand at room temperature for 30 minutes, and thereafter the supernatant was collected. The procedures were repeated again, and 2 mL of the supernatant was concentrated to dryness. The precipitate was dissolved in 100 μL of isopropanol, and the amount of triglyceride contained in 10 μL of the solution was determined using a triglyceride E-test (manufactured by Wako Pure Chemical Industries, Ltd., code 432-40201). In addition, all the determinations were carried out twice. The action for induction of differentiation was calculated by the following calculation formula, and shown by four ranks of +++, ++, + and +/−. • S: Amount of triglyceride in the presence of a test compound; • N: Amount of triglyceride in the negative control; and • P: Amount of triglyceride in the positive control; X=(S−N)/(P−N) (Judgment of Action for Induction of Differentiation)

The mark [2] stands for this setting: 3T3-L1, X=(S−N)/(P−N) of amount of triglyceride, P=insulin positive control, read-out: Action for Induction of Differentiation.
Where [3] appears, read: 3T3-L1, 3 μM, X=(S−N)/(P−N) of amount of triglyceride, P=insulin positive control, read-out: Action for Induction of Differentiation.
Setting [4] is: 3T3-L1, 10 μM, X=(S−N)/(P−N) of amount of triglyceride, P=insulin positive control, read-out: Action for Induction of Differentiation.
Where [5] appears, read: 3T3-L1, read-out: Action for Induction of Differentiation.

Read-outs that look alike come from different tables or passages of the source.

Consider `COc1ccc(C(=O)/C=C/c2cccc([N+](=O)[O-])c2)c(O)c1CC=C(C)C` [Compound (C076), 3-nitro-2′-hydroxy-3′-prenyl-4′-methoxychalcone], for which, in test [1], the activation at 3 µM was 15 to 30%, the activation at 10 µM is 30 to 60% and the activation at 30 µM was above 100%. For the same molecule, the activation at 1 µM in the test on 3T3-L1 cells (setting [2]) fell in the range of 60 to 100%. Moreover, the activation at 3 µM with 3T3-L1 cells (setting [3]) is above 100%. For the same molecule, in the test on 3T3-L1 cells (setting [4]), the activation at 10 µM was above 100%.

As for `CC(=O)Oc1ccc(/C=C/C(=O)c2ccc(OC(C)=O)c(C/C=C(\C)CCC=C(C)C)c2OC(C)=O)cc1` [Compound (C061), 4,2′,4′-triacetoxy-3′-geranylchalcone], the activation at 30 µM in test [1] fell in the range of 30 to 60%. The activation at 3 µM with 3T3-L1 cells (setting [3]) is 60 to 100%. In addition, the activation at 10 µM with 3T3-L1 cells (setting [4]) was above 100%.

On to `COc1ccc(C(=O)/C=C/c2ccc(O)cc2)c(O)c1` [Compound (C020), 4,2′-dihydroxy-4′-methoxychalcone], for which, in test [1], the activation at 10 µM lay in the range of 30 to 60% and the activation at 30 µM is 60 to 100%. Besides, in the test on 3T3-L1 cells (setting [2]), the activation at 4 µM was 30 to 60% and the activation at 13 µM was in the range of 60 to 100%.

In the case of `COc1ccc(C(C)=O)c(O)c1C/C=C(\C)CC/C=C(\C)CCC=C(C)C` [Compound (C052), 2′-hydroxy-3′-farnesyl-4′-methoxyacetophenone], in test [1], the activation at 3 µM lay within 15 to 30%, the activation at 10 µM lay in the range of 30 to 60% and the activation at 30 µM was in the range of 30 to 60%. Besides, the activation at 10 µM in the test on 3T3-L1 cells (setting [4]) is 30 to 60%.

As to `COc1ccc(C(=O)/C=C/c2ccc(OC(C)=O)cc2)c(OC(C)=O)c1C/C=C(\C)CCC=C(C)C` [Compound (C064-1), 4,2′-diacetoxy-3′-geranyl-4′-methoxychalcone], in test [1], the activation at 10 µM is 60 to 100% and the activation at 30 µM was above 100%. For the same molecule, the activation at 3 µM in the test with 3T3-L1 cells (setting [3]) was above 100%. Besides, the activation at 10 µM in the test with 3T3-L1 cells (setting [4]) is above 100%.

On to `CC(C)=CCC/C(C)=C/Cc1c(O)ccc2c1OC(c1ccc(O)cc1)CC2=O` (centres unmarked) [Prostratol F], for which the activation at 3 µM in the test with 3T3-L1 cells (setting [3]) was in the range of 60 to 100%. For the same molecule, the activation at 10 µM in the test with 3T3-L1 cells (setting [4]) lay within 60 to 100%.

Take `CC(=O)c1ccccc1OCc1ccccc1` [Compound (C065), 2′-benzyloxyacetophenone]: in the test with 3T3-L1 cells (setting [5]), the activation at 3 µM lay in the range of 30 to 60%, the activation at 10 µM was in the range of 60 to 100% and the activation at 30 µM is above 100%.

`CC(C)=CCCC1(C)Oc2c(C(=O)/C=C/c3ccc(O)cc3)ccc(O)c2CC1O` (centres unmarked) [TB2, 1-(3,4-dihydro-3,5-dihydroxy-2-(3-isohexenyl)-2-methyl-2H-benzopyran-8-yl)-3-(4-hydroxyphenyl)-2-propen-1-one]: the activation at 3 µM in the test on 3T3-L1 cells (setting [3]) was above 100%. Moreover, the activation at 10 µM in the test on 3T3-L1 cells (setting [4]) is above 100%.

For the molecule `COc1ccc2c(c1C/C=C(\C)CCC=C(C)C)OC(c1ccc(O)cc1)CC2=O` (centres unmarked) [Compound (C082), 8-geranyl-4′-hydroxy-7-methoxyflavanone], the activation at 10 µM in the test with 3T3-L1 cells (setting [4]) is 60 to 100%.

As to `CC(=O)c1ccc(O)c(C/C=C(\C)CCC=C(C)C)c1O` [Compound (C036), 2′,4′-dihydroxy-3′-geranylacetophenone], the activation at 3 µM in the test with 3T3-L1 cells (setting [3]) is 15 to 30%. The activation at 10 µM in the test with 3T3-L1 cells (setting [4]) was 60 to 100%.

With `COc1ccc(C(=O)/C=C/c2cccs2)c(O)c1CC=C(C)C` [Compound (C-THP), 1-(2-hydroxy-4-methoxy-3-prenylphenyl)-3-(2-thienyl)-2-propen-1-one], in the test with 3T3-L1 cells (setting [2]), the activation at 1 µM was 15 to 30%. The activation at 3 µM with 3T3-L1 cells (setting [3]) was 60 to 100%. Further, the activation at 10 µM in the test with 3T3-L1 cells (setting [4]) was above 100%.

For the molecule `C/C(=C\Cc1c(O)ccc(C(=O)/C=C/c2ccc(O)cc2)c1O)CCC(O)C(C)(C)O` (centres unmarked) [TB5, 1-[2,4-dihydroxy-3-(6,7-dihydroxy-3,7-dimethyl-2-octenyl)phenyl]-3-(4-hydroxyphenyl)-2-propen-1-one], in the test with 3T3-L1 cells (setting [3]), the activation at 3 µM is above 100%. Moreover, the activation at 10 µM with 3T3-L1 cells (setting [4]) is above 100%.

As to `COc1ccc(C(=O)/C=C/c2ccc(O)cc2)c(O)c1C` [Compound (C023), 4,2′-dihydroxy-3′-methyl-4′-methoxychalcone], in the test with 3T3-L1 cells (setting [2]), the activation at 4 µM is 60 to 100% and the activation at 13 µM lay in the range of 60 to 100%.

In the case of `COc1ccc(C=O)c(O)c1CC=C(C)C` [Compound (C063), 2-hydroxy-3-prenyl-4-methoxybenzaldehyde], the activation at 3 µM in the test with 3T3-L1 cells (setting [3]) lay within 30 to 60%. For the same molecule, in the test on 3T3-L1 cells (setting [4]), the activation at 10 µM was in the range of 60 to 100%. For the same molecule, the activation at 30 µM in the test with 3T3-L1 cells (3T3-L1, 30 μM, X=(S−N)/(P−N) of amount of triglyceride, P=insulin positive control, read-out: Action for Induction of Differentiation) is above 100%.

The values above are taken from patent US20070092551A1, “Therapeutic agent” (TAKARA BIO INC., priority 2003, published 2007).
